Laboratory results published in patent US8962650B2, “Therapeutic agent for tumor” (Eisai R&D Management Co., Ltd., priority 2011, dated 2015).

System: human melanoma cell line (A375)
Assay: Tumor proliferation inhibitory effect in nude mice transplanted with human melanoma cell line A375 (relative tumor volume)
Type: in vivo, mouse
Details: oral once daily 10 mL/kg (Compound A 1 mg/mL, PLX4032 10 mg/mL), A375 subcutaneous
Procedure: The present invention is described in more detail by way of Examples below. Example 1 Tumor Proliferation Inhibitory Effect of the Combined Use of Compound A and PLX4032 on a Human Melanoma Cell Line (A375)
Using five nude mice in one group (CAnN.Cg-Foxn1nu/CrlCrlj, female, Charles River Laboratories Japan, Inc.), the antitumor effect of administration of Compound A, PLX4032, or both of these compounds was evaluated. The human-derived melanoma cell line A375 (ATCC) was suspended in PBS (Wako Pure Chemical Industries, Ltd) at a density of 5×10^6 cells/ml, followed by thorough mixing. The resulting mixture was subcutaneously transplanted at the right flank of the body of each mouse in an amount of 0.1 mL. Fourteen days after transplantation, the major axis and the minor axis of a tumor were measured by a digital caliper (Digimatic™ caliper, Mitsutoyo Corporation). The mice were grouped so that the average value of tumor volume was nearly equal among the groups. Also, the tumor volume was calculated according to the equations below. Tumor volume (mm^3)=major axis (mm)×minor axis (mm)×minor axis (mm)/2
Compound A was dissolved in purified water at a concentration of 1 mg/mL. Also, PLX4032 was dissolved in DMSO at a concentration of 200 mg/ml. Further, the resulting solution was diluted 20-fold with a 1% aqueous solution of methylcellulose to prepare a 10 mg/mL PLX4032 suspension.
A control group, a Compound A group, a PLX4032 group, and a Compound A and PLX4032-combination group (hereinbelow, expressed as a combination group) were set up. The aqueous solution of Compound A or the PLX4032 suspension was orally administered to the mice in the Compound A group or the PLX4032 group, respectively, once daily at 10 mL/kg. To the combination group mice, the above drug solutions were each orally administered once daily at 10 mL/kg. The administration period was 23 days. Also, administration was not given to the control group mice.
The tumor volume was measured on the initial day of administration and on the 2nd, 5th, 7th, 9th, 12th, 14th, 16th, 19th, 21st, and 23rd days after initiation of administration. The ratio of the tumor volume on each day of measurement relative to the tumor volume on the initial day of administration was calculated as a relative tumor volume (hereinbelow, expressed as RTV). Further, the average value of RTV of mice in each group was calculated. The changes in the average value of RTV with time were shown in Table 1 and FIG. 1 and the value of each group on Day 23 was shown in FIG. 2.

[1] = Day 2 after initiation of administration
[2] = Day 5 after initiation of administration
[3] = Day 7 after initiation of administration
[4] = Day 9 after initiation of administration
[5] = Day 12 after initiation of administration
[6] = Day 14 after initiation of administration
[7] = Day 16 after initiation of administration
[8] = Day 19 after initiation of administration
[9] = Day 21 after initiation of administration
[10] = Day 23 after initiation of administration

Row | SMILES | average relative tumor volume (RTV) [1] | average relative tumor volume (RTV) [2] | average relative tumor volume (RTV) [3] | average relative tumor volume (RTV) [4] | average relative tumor volume (RTV) [5] | average relative tumor volume (RTV) [6] | average relative tumor volume (RTV) [7] | average relative tumor volume (RTV) [8] | average relative tumor volume (RTV) [9] | average relative tumor volume (RTV) [10]
1 | COc1cc2nccc(Oc3ccc(NC(=O)NC4CC4)c(Cl)c3)c2cc1C(N)=O [Compound A, 4-[3-chloro-4-(cyclopropylaminocarbonyl)aminophenoxy]-7-methoxy-6-quinolinecarboxamide] | 1.77 | 2.62 | 3.40 | 3.85 | 5.12 | 5.40 | 6.30 | 7.89 | 9.16 | 10.17
2 | CCCS(=O)(=O)Nc1ccc(F)c(C(=O)c2c[nH]c3ncc(-c4ccc(Cl)cc4)cc23)c1F [PLX4032, N-(3-{[5-(4-chlorophenyl)-1H-pyrrolo[2,3-b]pyridin-3-yl]carbonyl}-2,4-difluorophenyl)propane-1-sulfonamide] | 0.98 | 0.94 | 1.00 | 1.13 | 1.46 | 1.38 | 1.52 | 1.63 | 1.80 | 1.93
